{
  "source": "patent EP0118036A1",
  "about": "“Biologically active ketone derivative, preparation and use” (THE WELLCOME FOUNDATION LIMITED, priority 1983, dated 1984)",
  "key": {"[1]": {"details": "free base; cited from earlier work"}, "[2]": {"tested_on": "tetrabenazine induced sedation", "assay": "Antagonism of tetrabenazine induced sedation (modified Vernier method)", "format": "in vivo, Mice", "details": "for Percent Antagonism of Tetrabenazine Induced Sedation: CD1 male mice, 35 mg/kg tetrabenazine hydrochloride ip", "description": "Antagonism of tetrabenazine induced sedation was measured using a modification of the method of Vernier, et al., First Hahnemann Symposium on Psychosomatic Medicine, ed. Nodim and Moyer, pub. Lea and Febiger, Philadelphia, 1962.\nMice, three groups of 12 CD1 males each, were injected intraperitoneally (ip) with a solution of 2-tert-butylamino-3'-chlorogropiophenone hydrochloride (Cpd A) or 2-tert-butylamino-3'-chloropropiophenone maleate (Cpd B) or with saline. Thirty minutes later each of the mice was injected ip with a solution containing 35 mg/kg tetrabenazine hydrochloride. Thirty minutes after the injection of tetrabenazine each mouse was examined for its level of exploratory behavior which was scored on a modification of the arbitrary scale defined by Vernier, et al. The dose of tetrabenazine used was sufficient to cause 90 to 100 percent of the mice to remain motionless even when placed in a new environment. In the test results reported 100 percent would represent total reversal of tetrabenazine effects.\nThe doses of Cpd B are equivalent to the corresponding doses of Cpd A on a molar basis."}, "[3]": {"assay": "Storage stability of tablets (Examples 3, 4, 10A, 10B)", "format": "physicochemical", "details": "summary in words of Table II", "description": "In order to compare the storage stability of the tablets of Examples 3 and 4 with similar tablets containing the hydrochloride salt of 2-tert-butylamino-3'-chloropropiophenone, tablets having the following compositions were prepared in an analogous manner to that described in Examples 3 and 4:-\nThe four sets of tablets (3, 4, 10A and 10B) were tested for stability. Testing was carried out on tablets: • (a) stored at 50°C in closed bottles; and • (b) stored at 37°C in open bottles under a relative humidity of 75%.\nThe results are summarised in the following Table II in which the data are assay values expressed as percentage of labeled strength of the active salt, and \"mo.\" indicates month: […]"}, "[4]": {"assay": "Stability of salts with conventional pharmaceutical carriers or excipients", "format": "physicochemical", "details": "tableting excipients, particularly magnesium stearate and stearic acid; result in words", "from_the_text": "It will be appreciated that, in order for the salts to be used in medical therapy, it is necessary to formulate them into pharmaceutical compositions suitable for administration to the patient. The formulation of such compositions entails the admixture or contacting of the salts with various pharmaceutical carriers or excipients. Examples of solid pharmaceutical compositions which are mentioned in British Specification 1,340,032 are tablets, cachets, capsules and suppositories. Of these various types of composition, tablets and capsules are particularly preferred forms as it is generally desired to administer the active compound by the oral route. […] The formulation of the salts of the free base in capsules also presents problems because gelatin, which is commonly used to make the capsule shell, is hydrophilic and therefore creates a humid environment within the capsule, which has a deleterious effect on the 2-tert-butylamino-3'chloropropiophenone salt present in the capsule. It will therefore be appreciated that considerable difficulty arose in finding a salt of 2-tert-butylamino-3'-chloropropiophenone which has sufficient stability when formulated in pharmaceutical compositions.\nA further advantage of the maleate salt is that it is much less corrosive than, for example, the hydrochloride salt which tends to corrode apparatus used in its preparation and formulation. […]"}, "Charles River CD1 mice": {"tested_on": "Charles River CD1 mice", "assay": "14-day oral (gavage) toxicity in mice", "format": "in vivo", "details": "260 mg/kg per day for 14 days, gavage in 0.5 percent carboxymethylcellulose, four males and four females", "description": "2-Tert-butylamino-3'-chloropropiophenone maleate was administered by gavage in 0.5 percent carboxymethylcellulose to Charles River CD1 mice (four males and four females) at a dose of 260 mg/kg per day for 14 days."}, "[5]": {"assay": "Comparative bulk storage stability of salts of 2-tert-butylamino-3'-chloropropiophenone", "format": "physicochemical", "details": "bulk salt, result in words", "from_the_text": "The propiophenone moiety breaks down into hydroxyketones, a diketone and meta-chlorobenzoic acid. It is of course an important desideratum for : a pharmaceutical product that it should have a reasonably good bulk stability in order to avoid or reduce wastage resulting from decomposition of the active moiety during the period between its synthesis and its use in formulating the final dosage form.\nSmall amounts of various salts of 2-tert-butylamino-3'-chloropropiophenone were each placed in a clean borosilicate glass vial which was sealed with a Teflon-faced rubber closure. The samples were then placed in an oven maintained at 70°C (except for the formate which was stored at 75°C) and visual comparisons were made over a period of 1-3 days. The observations are recorded in the following Table I: […]"}},
  "note": "Counter-ions that a name gives are not always drawn.",
  "data": [
    {"smiles": "CC(NC(C)(C)C)C(=O)c1cccc(Cl)c1", "note": "(stereo not drawn) [2-tert-butylamino-3'-chloropropiophenone]", "values": [
      {"measurement": "pKa", "setting": "[1]", "result": "8.5-9"}
    ]},
    {"smiles": "CC(NC(C)(C)C)C(=O)c1cccc(F)c1", "note": "(stereo not drawn) [3'-fluoro analogue]", "values": [
      {"measurement": "pKa", "setting": "[1]", "result": "8.5-9"}
    ]},
    {"smiles": "CC(NC(C)(C)C)C(=O)c1cccc(Cl)c1", "note": "(stereo not drawn) [Cpd A, 2-tert-butylamino-3'-chlorogropiophenone hydrochloride]", "values": [
      {"measurement": "Percent Antagonism of Tetrabenazine Induced Sedation", "setting": "[2]; dose 12.5 mg/kg (ip)", "result": 17.5, "unit": "%"},
      {"measurement": "Percent Antagonism of Tetrabenazine Induced Sedation", "setting": "[2]; dose 25 mg/kg (ip)", "result": 50, "unit": "%"},
      {"measurement": "Percent Antagonism of Tetrabenazine Induced Sedation", "setting": "[2]; dose 50 mg/kg (ip)", "result": 62.5, "unit": "%"},
      {"measurement": "stability in the formulated tablets", "setting": "[3]", "result": "limited stability"},
      {"measurement": "stability in association with conventional pharmaceutical carriers and excipients", "setting": "[4]", "result": "limited stability"}
    ]},
    {"smiles": "CC(NC(C)(C)C)C(=O)c1cccc(Cl)c1.O=C(O)/C=C\\C(=O)O", "note": "(stereo not drawn) [Cpd B, 2-tert-butylamino-3'-chloropropiophenone maleate]", "values": [
      {"measurement": "Percent Antagonism of Tetrabenazine Induced Sedation", "setting": "[2]; dose 16.1 mg/kg (ip)", "result": 27.5, "unit": "%"},
      {"measurement": "Percent Antagonism of Tetrabenazine Induced Sedation", "setting": "[2]; dose 32.2 mg/kg (ip)", "result": 62.5, "unit": "%"},
      {"measurement": "Percent Antagonism of Tetrabenazine Induced Sedation", "setting": "[2]; dose 64.4 mg/kg (ip)", "result": 60, "unit": "%"},
      {"measurement": "antidepressant activity in the tetrabenazine-induced sedation test", "setting": "[2]; rodents, result in words", "result": "good antidepressant activity"},
      {"measurement": "stability in the formulated tablets", "setting": "[3]", "result": "relatively stable"},
      {"measurement": "stability in association with conventional pharmaceutical carriers and excipients", "setting": "[4]", "result": "advantageous stability characteristics"},
      {"measurement": "survival", "setting": "Charles River CD1 mice", "result": "All of the mice survived"}
    ]},
    {"smiles": "CC(NC(C)(C)C)C(=O)c1cccc(Cl)c1", "note": "(stereo not drawn) [napthalenesulphonate monohydrate]", "values": [
      {"measurement": "stability upon storage", "setting": "[5]", "result": "unstable upon storage"}
    ]}
  ]
}
